Experimental data: patent US20240058456A1, “MOLECULES WITH SOLUBILITY TAG AND RELATED METHODS” (Merck Patent GmbH, priority 2020, published 2024)

Assay: Solubility and aggregation during conjugation
Assay type: physicochemical
Conditions: conjugation media
Method: To this end, 1 eq antibody in a buffer with 150 mM NaCl, 25 mM Tris (pH 8.0) was mixed with a solution of the respective payload (10× or 20× surplus to the concentration of the antibody, depending on the number of linkage sites) and 6 U/ml of transglutaminase. The mixture was incubated for 16 h in a thermomixer at 37° C. and 450 rpm.
For linkage by maleimide chemistry, a 5 mg/mL solution of the respective antibody component in PBS (pH 7.4) was prepared (˜33 μM antibody). The antibody was reduced with TCEP ((tris(2-carboxyethyl)phosphine); ratio of antibody component to TCEP 1:2 to 1:6, depending on the desired DAR; TCEP was used as 2 mM stock, pH 7.0) or in some cases with DTT (dithiothreitol; 20 mM). After incubation for 0.5-2 hours (depending on the number of cysteines to be activated) in a 37° C. water bath, the reaction was allowed to cool down to room temperature.
The solution was desalted to conjugation buffer (10 mM sodium phosphate, pH 6.0, 2 mM EDTA, N2 degassed) on a Sephadex G25 column and adjusted to an antibody concentration of 0.2 mg/mL in conjugation buffer.
Conjugation was initiated by adding the reduced antibody to a solution of the appropriate maleimide-activated linker-payload construct at a suitable ratio (e.g. 1:4 to 1:8 ratio antibody to linker-payload construct for DAR 4; e.g. 1:20 ratio antibody to linker-payload construct for DAR 8). […]

## Cc1cccc2c(OC(=O)N(CCC(=O)NCCOS(=O)(=O)O)CCN(C)C(=O)OCc3ccc(NC(=O)[C@H](CCCNC(N)=O)NC(=O)[C@@H](NC(=O)CNC(=O)CNC(=O)CN)C(C)C)cc3)cc3c(c12)[C@H](CCl)CN3C(=O)c1cn2cc(NC(=O)c3cc4ccccc4o3)ccc2n1 [Compound 5]
  solubility of the linker-payload construct under coupling conditions: insufficient
